Laboratory results taken from PubChem BioAssay AID1845207 (Molecular Pharmacology Branch, DTP, NCI, 2023).

Tested on: NCI-H1876 tumor spheroid viability
Assay: Anticancer human tumor NCI-H1876 cell line growth inhibition;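 further: spheroids exposed to compounds for seven days before the viability read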;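 on viability, T/C: percent of DMSO vehicle control viability so 100% = vehicle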
Details: spheroids with HUVEC and MSC; for IC50: curve of first compound; for viability, T/C: stronger effect = lower value
How it was run: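 Complex spheroids of malignant cells with endothelial cells and mesenchymal stem cells; agents alone or combined, from near clinical Cmax (or 10 microM if unknown) down in half-log steps, 0.25% DMSO final.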

[1] = second compound 1 µM, first compound 0.0316 µM
[2] = second compound 1 µM, first compound 0.1 µM
[3] = second compound 1 µM, first compound 0.316 µM
[4] = second compound 1 µM, first compound 1 µM
[5] = second compound 1 µM, first compound 3.16 µM
[6] = second compound 1 µM, first compound 10 µM
[7] = second compound 3.16 µM, first compound 0.0316 µM
[8] = second compound 3.16 µM, first compound 0.1 µM
[9] = second compound 3.16 µM, first compound 0.316 µM
[10] = second compound 3.16 µM, first compound 1 µM
[11] = second compound 3.16 µM, first compound 3.16 µM
[12] = second compound 3.16 µM, first compound 10 µM
[13] = second compound 10 µM, first compound 0.0316 µM
[14] = second compound 10 µM, first compound 0.1 µM
[15] = second compound 10 µM, first compound 0.316 µM
[16] = second compound 10 µM, first compound 1 µM
[17] = second compound 10 µM, first compound 3.16 µM
[18] = second compound 10 µM, first compound 10 µM
[19] = second compound 31.6 µM, first compound 0.0316 µM
[20] = second compound 31.6 µM, first compound 0.1 µM
[21] = second compound 31.6 µM, first compound 0.316 µM
[22] = second compound 31.6 µM, first compound 1 µM
[23] = second compound 31.6 µM, first compound 3.16 µM
[24] = second compound 31.6 µM, first compound 10 µM
[25] = second compound 100 µM, first compound 0.0316 µM
[26] = second compound 100 µM, first compound 0.1 µM
[27] = second compound 100 µM, first compound 0.316 µM
[28] = second compound 100 µM, first compound 1 µM
[29] = second compound 100 µM, first compound 3.16 µM
[30] = second compound 100 µM, first compound 10 µM

| Compound | IC50 (second compound 1 µM) | IC50 (second compound 3.16 µM) | IC50 (second compound 10 µM) | IC50 (second compound 31.6 µM) | IC50 (second compound 100 µM) | viability, T/C [1] | viability, T/C [2] | viability, T/C [3] | viability, T/C [4] | viability, T/C [5] | viability, T/C [6] | viability, T/C [7] | viability, T/C [8] | viability, T/C [9] | viability, T/C [10] | viability, T/C [11] | viability, T/C [12] | viability, T/C [13] | viability, T/C [14] | viability, T/C [15] | also measured |
| --- | --- | --- | --- | --- | --- | --- | --- | --- | --- | --- | --- | --- | --- | --- | --- | --- | --- | --- | --- | --- | --- |
| CC(C)n1c(=O)n(C)c2cnc3cc(F)c(-c4ccc(OCCCN5CCCCC5)nc4)cc3c21 + Cn1nnc2c(C(N)=O)ncn2c1=O | 411 nM | 517 nM | 571 nM | 623 nM | 176 nM | 87% | 68.1% | 51.6% | 39.2% | 27.7% | 12.1% | 88.9% | 70.7% | 54.7% | 42.6% | 29.6% | 12.8% | 85.5% | 68.6% | 55.4% | viability, T/C [16]: 41.6%; viability, T/C [17]: 36.1%; viability, T/C [18]: 11.4%; viability, T/C [19]: 84.8%; viability, T/C [20]: 72.5%; viability, T/C [21]: 58.7%; viability, T/C [22]: 42.8%; viability, T/C [23]: 29.7%; viability, T/C [24]: 12.8%; viability, T/C [25]: 62.4%; viability, T/C [26]: 55.2%; viability, T/C [27]: 43.2%; viability, T/C [28]: 35.3%; viability, T/C [29]: 25.9%; viability, T/C [30]: 10.2% |
| CC1COCCN1c1cc(-c2ccnn2C)c2ccnc(-c3ccn[nH]3)c2n1 (stereo not given) + Cn1nnc2c(C(N)=O)ncn2c1=O | 55.4 nM | 54.5 nM | 59.8 nM | 33.6 nM | < 31.6 nM | 57% | 42.4% | 30.1% | 20.7% | 11.2% | 6.47% | 57.7% | 41.3% | 30.1% | 19.4% | 12.5% | 6.71% | 53% | 49.1% | 30.1% | viability, T/C [16]: 20%; viability, T/C [17]: 11%; viability, T/C [18]: 7.84%; viability, T/C [19]: 51.5%; viability, T/C [20]: 35.6%; viability, T/C [21]: 29.5%; viability, T/C [22]: 17.2%; viability, T/C [23]: 10.8%; viability, T/C [24]: 7.29%; viability, T/C [25]: 32.2%; viability, T/C [26]: 24%; viability, T/C [27]: 18.8%; viability, T/C [28]: 11.7%; viability, T/C [29]: 28.5%; viability, T/C [30]: 6.09% |
| COc1ccc([C@@H](O)c2cc(-c3ncnc4cc(N5CCOCC5)ccc34)c(F)cc2Cl)nn1 + Cn1nnc2c(C(N)=O)ncn2c1=O | 1080 nM | 1210 nM | 1000 nM | 970 nM | 335 nM | 93.8% | 86.7% | 74.3% | 49% | 29% | 4.64% | 97.5% | 85.2% | 80% | 53.7% | 26.5% | 4.48% | 94.4% | 86.3% | 72% | viability, T/C [16]: 51%; viability, T/C [17]: 23.5%; viability, T/C [18]: 3.37%; viability, T/C [19]: 90.8%; viability, T/C [20]: 82.2%; viability, T/C [21]: 73.1%; viability, T/C [22]: 47.7%; viability, T/C [23]: 25.1%; viability, T/C [24]: 4.04%; viability, T/C [25]: 48.4%; viability, T/C [26]: 65.8%; viability, T/C [27]: 48.5%; viability, T/C [28]: 36.1%; viability, T/C [29]: 17.8%; viability, T/C [30]: 2.3% |
